Structures can show the parent of a compound that is named as a salt.
What was measured:
Solubility in water = type: physicochemical
[1] = tested on: pain induced, in CDl mice, by the intraperitoneal injection of acetic acid; experiment: Koster test: pain induced by intraperitoneal injection of acetic acid; type: in vivo; settings: Mus musculus, po, per os, AD50 = 50% active dose
From the text: (§1) This effect was investigated in accordance with three conventional experimental procedures.
a. Effect against pain induced, in CDl mice, by the intraperitoneal injection of acetic acid, using the method described by Koster and colleagues (Fed. Proc., 1959, 18, 42) and modified by Peterfalvi, Branceni and colleagues, (Med. Pharmacol. exp., 1966, 15, 254).

CD1 mice, tail-pinching = experiment: Haffner tail-pinching test; type: in vivo; settings: Mus musculus, po, per os, AD50 = 50% active dose
From the text: as §1
c. Tail-pinching test on CD1 mice, using the method of Haffner (Deutsch. med. Wachr., 1959, 55, 731).

[2] = tested on: oedema induced by carragenine in SJ rats; experiment: Oedema induced by carragenine (anti-inflammatory effect); type: in vivo; settings: Rattus norvegicus, po, per os, AD40 = 40% active dose, read-out: Inflammation induced by carragenine AD40
From the text: The test of oedema induced by carragenine in SJ rats, in accordance with the technique of Winter and colleagues, (Proc. Soc. exp. Biol. Med., 1962, III, 544) was used. The effects of the compounds of the invention are markedly lower than that of the reference product.

[3] = Acute toxicity, 50% lethal dose in mice; settings: mouse, in vivo, po; mice (CD1 strain, both sexes), per os; 50% lethal dose calculated graphically
Description: The experiments were carried out on mice of the CDl strain, of both sexes, and the 50% lethal doses were calculated graphically.

| Compound | solubility in water (Solubility in water) | ED50 [1] [mg/kg] | ED50 (CD1 mice, tail-pinching) [mg/kg] | ED40 [2] [mg/kg] | LD50 [3] [mg/kg] |
| --- | --- | --- | --- | --- | --- |
| Cc1c(NC(=O)OCCN2CCN(c3cccc(Cl)c3)CC2)c(=O)n(-c2ccccc2)n1C [2-(4-m-chlorophenyl-piperazino)-ethyl N-(2,3-dimethyl-5-oxo-1-phenyl-3Δ-pyrazolin-4-yl)-carbamate tartrate] | very soluble in water | – | – | – | – |
| Cc1c(N(C)C)c(=O)n(-c2ccccc2)n1C [Aminopyrine, reference compound] | – | 40 | 75 | 50 | – |
| Cc1c(NC(=O)OCCN2CCN(c3cccc(C(F)(F)F)c3)CC2)c(=O)n(-c2ccccc2)n1C [SLB-186, 2-(4-m-Trifluoromethylphenyl-piperazino)-ethyl N-(2,3-dimethyl-5-oxo-1-phenyl-3Δ-pyrazolin-4-yl)-carbamate hydrochloride] | – | 8 | 10 | 100 | 2000 |
| Cc1c(NC(=O)OCCN2CCN(c3ccccc3)CC2)c(=O)n(-c2ccccc2)n1C [SLB-197, 2-(4-Phenyl-piperazino)-ethyl N-(2,3-dimethyl-5-oxo-1-phenyl-3Δ-pyrazolin-4-yl)-carbamate] | – | 30 | – | > 100 | 400 |
| Cc1c(NC(=O)OCCN2CCN(c3cccc(Cl)c3)CC2)c(=O)n(-c2ccccc2)n1C [SLB-207, 2-(4-m-Chlorophenyl-piperazino)-ethyl N-(2,3-dimethyl-5-oxo-1-phenyl-3Δ-pyrazolin-4-yl)-carbamate] | – | 8 | 10 | 100 | 990 |
| Cc1c(NC(=O)OCCN2CCN(c3cccc(SC(F)(F)F)c3)CC2)c(=O)n(-c2ccccc2)n1C [SLB-208, 2-(4-m-Trifluoromethylthiophenyl-piperazino)-ethyl N-(2,3-dimethyl-5-oxo-1-phenyl-3Δ-pyrazolin-4-yl)-carbamate] | – | 17 | – | 76 | > 1000 |
| Cc1ccc(N2CCN(CCOC(=O)Nc3c(C)n(C)n(-c4ccccc4)c3=O)CC2)cc1 [SLB-209, 2-(4-p-Tolyl-piperazino)-ethyl N-(2,3-dimethyl-5-oxo-1-phenyl-3Δ-pyrazolin-4-yl)-carbamate] | – | 25 | 15 | > 100 | 410 |
| Cc1c(NC(=O)OCCN(C)C)c(=O)n(-c2ccccc2)n1C [SLB-215, 2-Dimethylamino-ethyl N-(2,3-dimethyl-5-oxo-1-phenyl-3Δ-pyrazolin-4-yl)-carbamate] | very soluble in water | 60 | – | > 100 | > 1000 |
